We go through four molecules from paper PMC5983811, “Protein Tyrosine Phosphatase 1B Inhibition and Glucose Uptake Potentials of Mulberrofuran G, Albanol B, and Kuwanon G from Root Bark of Morus alba L. in Insulin-Resistant HepG2 Cells: An In Vitro and In Silico Study” (International Journal of Molecular Sciences, 2018).

What is called Ki is a measure of affinity in units of concentration, obtained from inhibition or displacement. For orientation: IC50 means the point on the concentration scale where inhibition reaches its midpoint.

Data set [1] has as its target T1, PTP1B (human recombinant) (Homo sapiens, UniProt P18031).
T1 construct: purchased Biomol International LP (Plymouth Meeting, PA, USA)
T1 sequence (P18031 1-435): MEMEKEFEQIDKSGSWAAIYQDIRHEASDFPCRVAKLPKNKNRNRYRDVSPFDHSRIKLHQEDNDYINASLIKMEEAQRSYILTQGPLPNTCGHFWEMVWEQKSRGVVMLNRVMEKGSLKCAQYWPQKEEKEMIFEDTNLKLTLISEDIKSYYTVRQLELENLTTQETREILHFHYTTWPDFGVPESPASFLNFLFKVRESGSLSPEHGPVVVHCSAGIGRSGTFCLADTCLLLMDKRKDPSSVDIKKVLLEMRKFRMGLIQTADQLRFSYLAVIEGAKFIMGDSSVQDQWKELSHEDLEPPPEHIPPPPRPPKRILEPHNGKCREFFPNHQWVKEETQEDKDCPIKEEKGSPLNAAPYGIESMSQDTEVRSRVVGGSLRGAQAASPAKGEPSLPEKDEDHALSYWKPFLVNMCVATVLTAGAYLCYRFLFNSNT
As to the kind of experiment: PTP1B inhibitory assay (pNPP substrate) and kinetic study. The class given is biochemical. To be noted: for Ki: Dixon plot, read-out: Protein Tyrosine Phosphatase 1B Ki; for Protein Tyrosine Phosphatase 1B Inhibition Type: Lineweaver-Burk plot; for IC50: pNPP substrate, mean ± SEM of triplicate experiments, read-out: Protein Tyrosine Phosphatase 1B IC50. As for the experimental part:
PTP1B inhibitory activity was evaluated using pNPP [44]. Recombinant PTP1B enzyme (0.5 units diluted in PTP1B reaction buffer) was added to a plate with or without sample. The plate was pre-incubated at 37 °C for 10 min, and then substrate (2 mM pNPP) was added. Following incubation at 37 °C for 15 min, the enzymatic reaction was terminated by addition of 10 M NaOH. The absorbance was measured at 405 nm using a microplate spectrophotometer (Molecular Devices, Sunnyvale, CA, USA).
(§1) Lineweaver–Burk plots for inhibition of PTP1B were obtained in the presence of various concentrations of the test compounds (0, 0.18, 0.44 and 1.78 μM for 1; 0, 0.27, 0.54, and 1.07 μM for 2; 0, 0.87, 1.44, and 2.89 μM for 3). Similarly, for the inhibition of α-glucosidase, text concentrations used were 0, 0.71, 1.07, and 1.78 μM for 1; 0, 0.36, 0.9, and 1.79 μM for 2 and 0, 0.72, 2.88, and 5.77 μM for 3. The enzymatic procedure consisted of the same aforementioned assay method. The inhibition constants (Ki) were determined via interpretation of the Dixon plots, where the value of the x-axis implies −Ki.

Data set [2] concerns the target α-glucosidase. The data set can be described thus: α-Glucosidase inhibitory assay (pNPG substrate) and kinetic study. The class given is biochemical. To be noted: for Ki: Dixon plot; for α-Glucosidase Inhibition Type: Lineweaver-Burk plot; for IC50: pNPG substrate, mean ± SEM of triplicate experiments. As for the experimental part:
The enzyme inhibition study was carried out spectrophotometrically using the procedure previously reported. The α-glucosidase activity was determined by measuring release of […] at 405 nm using a microplate spectrophotometer (Molecular Devices).
as §1

A short description of data set [3]: Cytotoxicity in HepG2 cells (MTT assay). Format: cell-based. The note with it: human, read-out: viable cell %. As for the experimental part:
In order to determine safe concentrations for cell experiments, the cytotoxicity of our test compounds in HepG2 cells was evaluated using an 3-(4,5-dimethylthiazol-2-yl)-2,5-diphenyltetrazolium bromide (MTT) assay. […] However, at 10 µM, the level of toxicity was high for 1 (viable cell %; 36), followed by 2 (viable cell %; 73) and 3 (viable cell %; 85). Therefore, 1.25, 2.5, and 5 µM concentrations were used in further cell experiments.
(§2) HepG2 (human hepatocarcinoma) cells, purchased from the American Type Culture Collection (HB-8065; Manassas, VA, USA), were maintained in 10% FBS MEM at 37 °C in a humidified atmosphere with 5% CO2. Medium was changed every 48 h. Cytotoxicity was evaluated using the MTT assay. Following the method previously described, insulin-resistant HepG2 cell model was established. All the other experiment conditions and procedures were similar to those reported in our previous paper.
(Tetrazolium dyes change colour on reduction, which living cells bring about.)

Data set [4] deals with insulin-resistant HepG2 cells. As to the kind of experiment: Glucose uptake assay (2-NBDG) in insulin-resistant HepG2 cells. The class given is cell-based, human. As for the experimental part:
as §2
The glucose uptake rate in insulin-resistant HepG2 cells was assessed using the fluorescent D-glucose analog 2-NBDG. Once the induction of insulin resistance was accomplished, cell solutions in the wells were substituted with different concentrations of 1–3 or a positive control, rosiglitazone (10 µM), prepared in serum-free MEM (SFMEM) in respective groups. After 24 h incubation with samples, the media in the wells was replaced with 100 nM insulin diluted in SFMEM and incubated for 30 min. Cells were then incubated with 40 μM 2-NBDG for 30 min and washed with ice-cold PBS. The fluorescence intensity of 2-NBDG was measured on a fluorescence microplate reader (FL ×800, Bio-Tek Instruments, Inc., Winooski, VT, USA) at 485 nm excitation and 528 nm emission wavelengths. Six replicate wells were established, and each experiment was repeated three times.

Data set [5] concerns PTP1B expression. As to the kind of experiment: PTP1B expression level in insulin-resistant HepG2 cells (Western blot). Format: cell-based, human. As for the experimental part: Insulin-resistant HepG2 cells were exposed to different concentrations of 1–3 or rosiglitazone (10 μM) in 24-well plates. After 24 h of incubation with samples, the media in the wells was replaced with 100 nM insulin diluted in SFMEM and incubated at 37 °C for 30 min. Cells were then washed twice with ice-cold PBS, collected, and lysed with sample buffer (50 mM HEPES, pH 7.5, 150 mM NaCl, 2.5 mM EDTA, 0.5% NP-40, 1 mM PMSF, 1 mM DTT, 0.2% aprotinin, 0.5% leupeptin, 20 mM NaF, and 1 mM Na3VO4). Protein was quantified by the modified Bradford protein assay kit using BSA as a standard. Total protein (50 μg) was electrophoresed on sodium dodecyl sulfate-polyacrylamide gels (Bio-Rad, Hercules, CA, USA) and then transferred to polyvinylidene difluoride (PVDF) membranes (Immobilon-P; Millipore, Burlington, MA, USA) using the Pierce G2 Fast Blotter (Thermo Fisher Scientific Inc., Fair Lawn, NJ, USA) at 100 V for 60 min in a standard semi-dry system. Membranes were blocked in blocking buffer (5% skim milk powder in TBS-Tween buffer containing 10 mM Tris, 100 mM NaCl, and 0.1% Tween-20, pH 7.4) and incubated overnight with primary antibodies at 4 °C on a shaker, followed by incubation with appropriate secondary antibodies for 2 h at room temperature. The membranes were washed three times with TBST (3 × 10 min each) and the protein bands were visualized with the Supersignal West Pico Chemiluminescence Substrate (Pierce, Rockford, IL, USA) on X-ray films (Kodak, Rochester, NY, USA) and quantitated using CS analyzer software (Atto Corp., Tokyo, Japan).
(In western blotting, separated proteins are transferred to a membrane and probed.)

Regarding `CC1=C[C@H]2c3c(O)cc(-c4cc5ccc(O)cc5o4)cc3O[C@@]3(c4ccc(O)cc4O)Oc4cc(O)ccc4[C@H](C1)[C@@H]23` [Compound 1, mulberrofuran G], in data set [1], the Ki came to 0.7 µM, the “Protein Tyrosine Phosphatase 1B Inhibition Type” value is listed as “Mixed type” and the IC50 came to 0.57 ± 0.04 µM. Further, in data set [2], the Ki was found to be 1.2 µM, the “α-Glucosidase Inhibition Type” value is reported as “Mixed type” and the IC50 was 1.67 ± 0.02 µM. The viability at 10 µM in data set [3] worked out at 36%. Besides, the “relative glucose uptake percentage” value in data set [4] (5 µM) is on record as 140%. Moreover, in data set [5] (2.5 and 5 μM), the PTP1B expression entry is “diminished the PTP1B expression almost completely”.

Take `Cc1cc2c3c(c1)-c1c(O)cc(-c4cc5ccc(O)cc5o4)cc1O[C@@]3(c1ccc(O)cc1O)Oc1cc(O)ccc1-2` [Compounds 2]: in data set [1], the Ki is 1.02 µM and the IC50 turned out to be 0.8 ± 0.02 µM. Besides, the viability at 10 µM in data set [3] turned out to be 73%.

Turning to `CN(CCOc1ccc(CC2SC(=O)NC2=O)cc1)c1ccccn1` (stereo not shown) [rosiglitazone, reference compound], the “relative % glucose uptake” value in data set [4] (10 µM) is 123%. Besides, the PTP1B expression result in data set [5] (10 μM) is on record as “declined”.

Turning to `CC(C)=CCc1c(-c2ccc(O)cc2O)oc2c([C@H]3C=C(C)C[C@@H](c4ccc(O)cc4O)[C@@H]3C(=O)c3ccc(O)cc3O)c(O)cc(O)c2c1=O` [Compound 3, kuwanon G], in data set [1], the Ki was 1.98 µM, the “Protein Tyrosine Phosphatase 1B Inhibition Type” value is “Mixed type” and the IC50 was 2.26 ± 0.03 µM. For the same molecule, in data set [2], the affinity corresponds to a Ki of 2.51 µM, the “α-Glucosidase Inhibition Type” value is “Mixed type” and it took 2.35 ± 0.03 µM to reach half-maximal inhibition (IC50). Besides, the viability at 10 µM in data set [3] came out at 85%. Besides, the PTP1B expression entry in data set [5] (concentration dependent) is on record as “downregulated the expression towards normal”.
